Tests used:
ISOC2 = biological target: T1, ISOC2 (Homo sapiens, UniProt Q96AB3); experiment: ABPP chemical proteomics (LC-MS/MS) in HEK293T cells; format: cell-based
T1 construct: endogenous in cells; host or cells: HEK293T
T1 sequence (Q96AB3 1-205): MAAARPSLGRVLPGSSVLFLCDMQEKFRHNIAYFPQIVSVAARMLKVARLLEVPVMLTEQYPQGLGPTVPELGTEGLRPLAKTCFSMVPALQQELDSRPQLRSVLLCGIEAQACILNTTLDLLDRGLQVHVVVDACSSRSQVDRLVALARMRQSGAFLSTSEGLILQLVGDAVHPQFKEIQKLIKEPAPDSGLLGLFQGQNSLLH
Summary of the method: (§1)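 Cellular target engagement was assessed by probe competition. Labelled HEK293T lysates (≥400 µg protein) underwent copper-catalysed click ligation for 1 h at room temperature. Biotinylated proteins were pulled down on NeutrAvidin agarose in 0.2% SDS/HEPES pH 8.0 for 3 h before LC-MS/MS quantification.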

C21orf33 = biological target: T2, C21orf33 (Homo sapiens, UniProt P0DPI2); experiment: as above; format: cell-based
T2 construct: endogenous in cells; host or cells: HEK293T
T2 sequence (P0DPI2 42-268): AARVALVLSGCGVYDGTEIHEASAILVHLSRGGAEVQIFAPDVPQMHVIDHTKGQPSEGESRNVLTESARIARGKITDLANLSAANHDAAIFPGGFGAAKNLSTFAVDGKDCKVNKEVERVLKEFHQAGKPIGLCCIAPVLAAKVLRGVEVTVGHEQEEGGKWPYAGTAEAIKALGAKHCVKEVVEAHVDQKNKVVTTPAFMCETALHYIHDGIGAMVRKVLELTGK
Summary of the method: as §1

[1] = IMP-2586 labelling vs DMSO, 30 nM, 10 min, HEK293T (Table S4, Fig.5c)
[2] = IMP-2587 labelling vs DMSO, 30 nM, 10 min, HEK293T (Table S2, Fig.5a)
[3] = compound 3 out-competition with IMP-2586 labelling, HEK293T (Table S5, Fig.5d)

## N#CN1CC[C@@H](NC(=O)c2cc(-c3ccccc3Oc3ccc(N=[N+]=[N-])cc3)n[nH]2)C1 [IMP-2586]
ISOC2; [1]
  Difference (log2 fold change of enrichment): 3.62
C21orf33; [1]
  Difference (log2 fold change of enrichment): 3.93

## C#Cc1cccc(-c2cc(NC(=O)CC3CCN(C#N)C3)on2)c1 (stereo not shown) [IMP-2587]
ISOC2; [2]
  Difference (log2 fold change of enrichment): 3.87
C21orf33; [2]
  Difference (log2 fold change of enrichment): 0.92

## N#CN1CC[C@H](CC(=O)Nc2cc(-c3cccc(Cl)c3)no2)C1 [compound 1, reference compound]
ISOC2; compound 1 out-competition with IMP-2587 labelling, HEK293T (Table S3, Fig.5b)
  Difference (log2 fold change of enrichment): -3.53

## N#CN1CC[C@@H](NC(=O)c2cc(-c3ccccc3Oc3ccccc3)n[nH]2)C1 [compound 3, reference compound]
ISOC2; [3]
  Difference (log2 fold change of enrichment): -3.08
C21orf33; [3]
  Difference (log2 fold change of enrichment): -3.65

Source: article PMC11078216, “Discovery of potent and selective activity-based probes (ABPs) for the deubiquitinating enzyme USP30” (RSC Chemical Biology, 2024)
